Laboratory results as given in patent US20220087996A1, “Histone acetylase p300 inhibitor and use thereof” (HINOVA PHARMACEUTICALS INC., priority 2018, published 2022).

system: CWR22RV1 cells; assay: Inhibition of proliferation of CWR22RV1 cells (CCK-8); format: cell-based, human; conditions: 6 days culture, read-out: IC50 against CWR22RV1 cells
Experimental: 1) CWR22RV1 cells were subcultured in cell culture medium, and the cells in good growth condition were seeded in a 96-well plate, 80 μL for each well, and the cell number in each well was 1500. The plate was incubated overnight in a 37° C., 5% CO2 cell incubator. 2) The drug was prepared as 30 mM stock solution with dimethyl sulfoxide (DMSO). Prior to use, the stock solution was diluted 3 times with DMSO, and then further diluted as 3-fold gradient to obtain 9 concentration gradients. Then, each concentration of compound was diluted 200 times with the culture solution (ensuring that the DMSO concentration in the culture system was 0.1%), and two replicate wells were set for each concentration. 20 μL of diluted compound solution was added to the cell culture well (with final concentrations of 10 μM, 3.3 μM. 1.1 μM . . . ), and the plate was gently shaken to mix. In addition, 3 negative control wells containing only cells and 3 blank control wells containing only culture medium were included (6 wells were each added 20 μL DMSO diluted 200 times with culture medium). 2. Result detection: (1) After culturing for 6 days, 10 μL CCK-8 was added to each well, and the plate was continually cultured in a 37° C., 5% CO2 cell incubator for 2.5 h. (2) The absorbance (OD value) was detected at 450 nm using a multifunctional microplate reader. (3) The data were analyzed by Dose-response-inhibition equation in the software GraphPad Prism6, and the IC50 value was obtained.

How did the IC50 turn out when `CNC(=O)Nc1ccc2c(c1)C1(CC1)CC21OC(=O)N(CC(=O)N2[C@@H](C)CC[C@H]2c2ccc(F)cc2)C1=O` (stereo partly drawn) [Example 373, 1-(3′-(2-((2S,5S)-2-(4-fluorophenyl)-5-methylpyrrolidin-1-yl)-2-oxoethyl)-2′,4′-dioxo-dihydrospiro[cyclopropane-1,1′-indene-3′,5′-oxazolidin]-6′-yl)-3-methylurea] was run?
Its IC50 is over 2 µM.

How did the IC50 turn out when `CNC(=O)Nc1ccc2c(c1)CC[C@@]21OC(=O)N(CC(=O)N2C[C@@H]3C[C@H]2CN3C(=O)OC(C)(C)C)C1=O` [Example 10, (1S,4S)-5-(2-((R)-5-(3-methylureido)-2′,4′-dioxo-2,3-dihydrospiro[indene-1,5′-oxazolidine]t-butyl-3′-yl)acetyl)-2,5-diazabicyclo[2.2.1]heptane-2-carboxylic Acid t-Butyl Ester] was run?
The IC50 was over 2 µM.

For “1-(2′,4′-dioxo-3′-(2-oxo-2-((S)-2-phenylpyrrolidin-1-yl)ethyl)-2,3-dihydrospiro[cyclopropane-indene-1,5′-oxazolidine]-5-yl)-3-methylurea [Example 325]”, which IC50 is on record?
The IC50 was over 2 µM.

With `CNC(=O)Nc1ccc2c(c1)CC[C@@]21OC(=O)N(CC(=O)N2C(c3ccc(F)c(Cl)c3)CC[C@@H]2C)C1=O` (stereo in doubt) [Example 369, 1-((R)-3′-(2-((2R,5S)-2-(3-chloro-4-fluorophenyl)-5-methylpyrrolidin-1-yl)-2-oxoethyl)-2′,4′-dioxo-2,3-dihydrospiro[indene-1,5′-oxazolidine]-5-yl)-3-methylurea] as the compound, how does the IC50 read?
Its IC50 is over 2 µM.

same assay, conditions: Homo sapiens, CWR22Rv1, 144 h, 6 days culture, read-out: IC50 against CWR22RV1 cells

`CNC(=O)Nc1ccc2c(c1)CC[C@@]21OC(=O)N(CC(=O)N2C(C)CCC2c2ccc(Cl)cc2C)C1=O` (stereo partly drawn) [Example 351, 1-((1R)-3′-(2-(2-(4-chloro-2-methylphenyl)-5-methylpyrrolidin-1-yl)-2-oxoethyl)-2′,4′-dioxo-2,3-dihydrospiro[indene-1,5′-oxazolidine]-5-yl)-3-methylurea] was tested. Which IC50 did it give?
Its IC50 is at most 0.5 µM.

How did the IC50 turn out when `CNC(=O)Nc1ccc2c(c1)CC[C@]21OC(=O)N(CC(=O)N2CCCC[C@H]2c2ccccc2)C1=O` [Example 4] was run?
Its IC50 is over 2 µM.

With `C=C[C@H]1CC[C@@H](c2ccc(F)cc2)N1C(=O)CN1C(=O)O[C@@]2(CCc3cc(NC(=O)NC)ccc32)C1=O` [Example 367, 1-((R)-3′-(2-((2S,5R)-2-(4-fluorophenyl)-5-vinylpyrrolidin-1-yl)-2-oxoethyl)-2′,4′-dioxo-2,3-dihydrospiro[indene-1,5′-oxazolidine]-5-yl)-3-methylurea] as the compound, how does the IC50 read?
Its IC50 is 0.5 to 2 µM.

For `CNC(=O)Nc1cc(F)c2c(c1)CC[C@@]21OC(=O)N(CC(=O)N2[C@@H](C)CC[C@H]2c2cc(F)c(F)c(F)c2)C1=O` [Example 388], which IC50 is on record?
The IC50 was over 2 µM.

How did the IC50 turn out when `CNC(=O)Nc1cc(F)c2c(c1)CC[C@]21OC(=O)N(CC(=O)N2[C@@H](C)CC[C@H]2c2cc(F)c(F)c(F)c2)C1=O` [Example 386, 1-((S)-7-fluoro-3′-(2-((2S,5S)-2-methyl-5-(3,4,5-trifluorophenyl)pyrrolidin-1-yl)-2-oxoethyl)-2′,4′-dioxo-2,3-dihydrospiro[indene-1,5′-oxazolidine]-5-yl)-3-methylurea] was run?
The IC50 was over 2 µM.

With `CNC(=O)Nc1ccc2c(c1)CC[C@@]21OC(=O)N(CC(=O)N2CCCC2c2ccc(F)cc2OC)C1=O` (stereo partly drawn) [Example 340, 1-((1R)-3′-(2-(2-(4-fluoro-2-methoxyphenyl)pyrrolidin-1-yl)-2-oxoethyl)-2′,4′-dioxo-2,3-dihydrospiro[indene-1,5′-oxazolidine]-5-yl)-3-methylurea] as the compound, how does the IC50 read?
Its IC50 is over 2 µM.

With `CNC(=O)Nc1ccc2c(c1)CCC21OC(=O)N(CC(=O)N2CC3CCC2C3)C1=O` (stereo not drawn) [Example 16, 1-(3′-(2-(2-azabicyclo[2.2.1]heptan-2-yl)-2-oxoethyl)-2′,4′-dioxo-2,3-dihydrospiro[indene-1,5′-oxazolidine]-5-yl)-3-methylurea] as the compound, how does the IC50 read?
Its IC50 is over 2 µM.

With `CNC(=O)Nc1ccc2c(c1)CC[C@@]21OC(=O)N(CC(=O)N2CCCC2c2ccccc2F)C1=O` (stereo partly drawn) [Example 323, 1-((1R)-3′-(2-(2-(2-fluorophenyl)pyrrolidin-1-yl)-2-oxoethyl)-2′,4′-dioxo-2,3-dihydrospiro[indene-1,5′-oxazolidine]-5-yl)-3-methylurea] as the compound, how does the IC50 read?
The IC50 was over 2 µM.

`CNC(=O)Nc1ccc2c(c1)CC[C@@]21OC(=O)N(CC(=O)N2CCCC2c2ccccc2Br)C1=O` (stereo partly drawn) [Example 336, 1-((1R)-3′-(2-(2-(2-bromophenyl)pyrrolidin-1-yl)-2-oxoethyl)-2′,4′-dioxo-2,3-dihydrospiro[indene-1,5′-oxazolidine]-5-yl)-3-methylurea] was tested. Which IC50 did it give?
Its IC50 is over 2 µM.

`CNC(=O)Nc1ccc2c(c1)CC[C@@]21OC(=O)N(CC(=O)N2CCC[C@H]2C(=O)N2CC3CC2CO3)C1=O` (stereo partly drawn) [Example 328, 1-(3′-(2-((2S)-2-(2-oxa-5-azabicyclo[2.2.1]heptan-5-carbonyl)pyrrolidin-1-yl)-2-oxoethyl)-2′,4′-dioxo-2,3-dihydrospiro[indene-1,5′-oxazolidine]-5-yl)-3-methylurea] was tested. Which IC50 did it give?
The IC50 was over 2 µM.

How did the IC50 turn out when `CNC(=O)Nc1ccc2c(c1)CC[C@@]21OC(=O)N(CC(=O)N2CCCCC2c2ccccc2)C1=O` (stereo partly drawn) [Example 322, 1-((1R)-2′,4′-dioxo-3′-(2-oxo-2-(2-phenylpiperidin-1-yl)ethyl)-2,3-dihydrospiro[indene-1,5′-oxazolidine]-5-yl)-3-methylurea] was run?
Its IC50 is over 2 µM.

With `CNC(=O)Nc1ccc2c(c1)CC[C@@]21OC(=O)N(CC(=O)N2CCCC2c2nccn2C)C1=O` (stereo partly drawn) [Example 111] as the compound, how does the IC50 read?
The IC50 was over 2 µM.

For `CNC(=O)Nc1ccc2c(c1)CC[C@@]21OC(=O)N(CC(=O)N2C(c3ccc(F)cc3)CC[C@@H]2C)C1=O` (stereo partly drawn) [Example 15, 1-((R)-3′-(2-((5S)-2-(4-fluorophenyl)-5-methylpyrrolidin-1-yl)-2-oxoethyl)-2′,4′-dioxo2,3-dihydrospiro[indene-1,5′-oxazolidine]-5-yl)-3-methylurea], which IC50 is on record?
Its IC50 is at most 0.5 µM.

With `CNC(=O)Nc1ccc2c(c1)CC[C@]21OC(=O)N(CC(=O)N2CCC[C@H]2c2ccccc2)C1=O` [Example 310, 1-((S)-2′,4′-dioxo-3′-(2-oxo-2-((S)-2-phenylpyrrolidin-1-yl)ethyl)-2,3-dihydrospiro[indene-1,5′-oxazolidine]-5-yl)-3-methylurea] as the compound, how does the IC50 read?
Its IC50 is over 2 µM.

For `CNC(=O)Nc1ccc2c(c1)CC[C@@]21OC(=O)N(CC(=O)N2CCCC2c2ccccc2)C1=O` (stereo partly drawn) [Example 303, 1-((1R)-2′,4′-dioxo-3′-(2-oxo-2-(2-phenylpyrrolidin-1-yl)ethyl)-2,3-dihydrospiro[indene-1,5′-oxazolidine]-5-yl)-3-methylurea], which IC50 is on record?
The IC50 was 0.5 to 2 µM.

How did the IC50 turn out when `CNC(=O)Nc1ccc2c(c1)CC[C@@]21OC(=O)N(CC(=O)N2CCCC2c2cccc(OC)c2)C1=O` (stereo partly drawn) [Example 335, 1-((1R)-3′-(2-(2-(3-methoxyphenyl)pyrrolidin-1-yl)-2-oxoethyl)-2′,4′-dioxo-2,3-dihydrospiro[indene-1,5′-oxazolidine]-5-yl)-3-methylurea] was run?
Its IC50 is over 2 µM.

For `CNC(=O)Nc1ccc2c(c1)CC[C@@]21OC(=O)N(CC(=O)N2CCCc3cc(-c4ccn(C)n4)c(C(F)(F)F)cc32)C1=O` [Example 109, (R)-1-methyl-3-(3′-(2-(6-(1-methyl-1H-pyrazol-3-yl)-7-(trifluoromethyl)-3,4-dihydroquinolin-1-(2H)-yl)-2-oxoethyl)-2′,4′-dioxo-2,3-dihydrospiro[indene-1,5′-oxazolidine]-5-yl)urea], which IC50 is on record?
Its IC50 is over 2 µM.

Which IC50 does the source give for `CNC(=O)Nc1ccc2c(c1)CC[C@@]21OC(=O)N(CC(=O)N2C(C)CCC2(c2ccc(OC)cc2)c2ccc(OC)cc2)C1=O` (stereo partly drawn) [Example 349, 1-((1R)-3′-(2-(2,2-bis(4-methoxyphenyl)-5-methylpyrrolidin-1-yl)-2-oxoethyl)-2′,4′-dioxo-2,3-dihydrospiro[indene-1,5′-oxazolidine]-5-yl)-3-methylurea] here?
The IC50 was over 2 µM.

Which IC50 does the source give for `CNC(=O)Nc1ccc2c(c1)CC[C@@]21OC(=O)N(CC(=O)N2CCC2c2ccccc2)C1=O` (stereo partly drawn) [Example 106] here?
The IC50 was over 2 µM.

For `CNC(=O)Nc1ccc2c(c1)CC[C@]21OC(=O)N(CC(=O)N2CCc3ccccc3C2)C1=O` [Example 311, (S)-1-(3′-(2-(3,4-dihydroisoquinolin-2(1H)-yl)-2-oxoethyl)-2′,4′-dioxo-2,3-dihydrospiro[indene-1,5′-oxazolidine]-5-yl)-3-methylurea], which IC50 is on record?
The IC50 was over 2 µM.

`CCc1cc(F)ccc1C1CCC(C)N1C(=O)CN1C(=O)O[C@@]2(CCc3cc(NC(=O)NC)ccc32)C1=O` (stereo partly drawn) [compound 358] was tested. Which IC50 did it give?
The IC50 was 0.5 to 2 µM.

For `CNC(=O)Nc1ccc2c(c1)CC[C@@]21OC(=O)N(CC(=O)N2CCCC2c2cccc3c2OCO3)C1=O` (stereo partly drawn) [Example 112], which IC50 is on record?
The IC50 was over 2 µM.

For `CNC(=O)Nc1ccc2c(c1)CCC21OC(=O)N(CC(=O)N2CCCC2c2ncc[nH]2)C1=O` (stereo not drawn) [Example 330, 1-(3′-(2-(2-(1H-imidazol-2-yl)pyrrolidin-1-yl)-2-oxoethyl)-2′,4′-dioxo-2,3-dihydrospiro[indene-1,5′-oxazolidine]-5-yl)-3-methylurea], which IC50 is on record?
Its IC50 is over 2 µM.

Which IC50 does the source give for `CNC(=O)Nc1ccc2c(c1)CC[C@@]21OC(=O)N(CC(=O)N2C(C)(C)CCCC2(C)C)C1=O` [Example 368] here?
Its IC50 is over 2 µM.

same assay, conditions: Homo sapiens, CWR22Rv1, 144 h, 6 days culture, read-out: IC50 against CWR22RV1 cells (text)

Which IC50 does the source give for `CNC(=O)Nc1ccc2c(c1)CC[C@@]21OC(=O)N(CC(=O)N2C(C)CCC2c2ccc(Cl)cc2C)C1=O` (stereo partly drawn) [Example 351, 1-((1R)-3′-(2-(2-(4-chloro-2-methylphenyl)-5-methylpyrrolidin-1-yl)-2-oxoethyl)-2′,4′-dioxo-2,3-dihydrospiro[indene-1,5′-oxazolidine]-5-yl)-3-methylurea] here?
Its IC50 is at most 0.5 µM.

For `CNC(=O)Nc1ccc2c(c1)CC[C@@]21OC(=O)N(CC(=O)N2C(c3ccc(F)cc3)CC[C@@H]2C)C1=O` (stereo partly drawn) [Example 15, 1-((R)-3′-(2-((5S)-2-(4-fluorophenyl)-5-methylpyrrolidin-1-yl)-2-oxoethyl)-2′,4′-dioxo2,3-dihydrospiro[indene-1,5′-oxazolidine]-5-yl)-3-methylurea], which IC50 is on record?
The IC50 was at most 0.5 µM.
